Source: PubChem BioAssay (NCI)
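How tested: cells in 96-well plates exposed to compound for 48 hours at five concentrations. TGI marks complete inhibition of growth.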

Tests used:
Test in all cases: NCI tumour cell line growth inhibition, 48 h
ACHN renal = system: ACHN renal
HL-60(TB) leukemia = system: HL-60(TB) leukemia
HOP-62 NSCLC = system: HOP-62 NSCLC
K-562 leukemia = system: K-562 leukemia
MCF7 breast = system: MCF7 breast
MDA-MB-231 breast = system: MDA-MB-231 breast
MDA-MB-435 = system: MDA-MB-435
MOLT-4 leukemia = system: MOLT-4 leukemia
NCI-H226 lung = system: NCI-H226 lung
NCI-H23 lung = system: NCI-H23 lung
OVCAR-5 ovarian = system: OVCAR-5 ovarian
SK-MEL-28 melanoma = system: SK-MEL-28 melanoma
SK-MEL-5 melanoma = system: SK-MEL-5 melanoma
SNB-75 CNS = system: SNB-75 CNS
T-47D breast = system: T-47D breast
TK-10 renal = system: TK-10 renal
U251 CNS = system: U251 CNS
UACC-257 melanoma = system: UACC-257 melanoma
UO-31 renal = system: UO-31 renal
HOP-92 NSCLC = system: HOP-92 NSCLC

Structure (SMILES)	TGI (ACHN renal)	TGI (HL-60(TB) leukemia)	TGI (HOP-62 NSCLC)	TGI (K-562 leukemia)	TGI (MCF7 breast)	TGI (MDA-MB-231 breast)	TGI (MDA-MB-435)	TGI (MOLT-4 leukemia)	TGI (NCI-H226 lung)	TGI (NCI-H23 lung)	TGI (OVCAR-5 ovarian)	TGI (SK-MEL-28 melanoma)	TGI (SK-MEL-5 melanoma)	TGI (SNB-75 CNS)	TGI (T-47D breast)	TGI (TK-10 renal)	TGI (U251 CNS)	TGI (UACC-257 melanoma)	TGI (UO-31 renal)	TGI (HOP-92 NSCLC)
Cc1ccc(/C(=C\C(=O)C(=O)NC23CC4CC(CC(C4)C2)C3)Sc2ccccc2)cc1	> 10 µM	> 10 µM	> 10 µM	> 10 µM	> 10 µM	> 10 µM	> 10 µM	> 10 µM	> 10 µM	> 10 µM	> 10 µM	> 10 µM	> 10 µM	> 10 µM	> 10 µM	> 10 µM	> 10 µM	> 10 µM	> 10 µM	
COc1ccc2c(c1)c1c(n2CCN(C)C)-c2cccc(OC)c2CC1	38.8 µM		27.6 µM	16.4 µM	29.5 µM	35.2 µM	28 µM	26.8 µM	17.1 µM	36.9 µM	29.8 µM	32 µM	35 µM	18.9 µM	27.7 µM	41.5 µM	32.6 µM	37.7 µM	35.4 µM	44.2 µM
Cc1cnc(-c2c[nH]c3ccccc23)nc1-c1c[nH]c2ccccc12	10 µM	25.1 µM	24.8 µM	26 µM	19.1 µM	7.78 µM	19.8 µM	28.4 µM			20.9 µM		20.5 µM	9.64 µM	9.15 µM	18.1 µM	19.7 µM	20.5 µM	20.8 µM	7.21 µM
O=C(O)c1ccc([N+]2=Cn3c(nc4ccccc43)C2)cc1	> 100 µM	> 100 µM	> 100 µM	> 100 µM	> 100 µM	> 100 µM	> 100 µM		> 100 µM	> 100 µM	> 100 µM	> 100 µM	> 100 µM	> 100 µM	> 100 µM	> 100 µM	> 100 µM	> 100 µM	> 100 µM	
O1C2C1C1OC1C1OC1C1OC21 (configuration not stated)	> 100 µM		> 100 µM	> 100 µM	> 100 µM	> 100 µM	> 100 µM	> 100 µM	> 100 µM	> 100 µM	> 100 µM	> 100 µM	> 100 µM	> 100 µM	> 100 µM	> 100 µM	> 100 µM	> 100 µM	> 100 µM	> 100 µM
O=C1C(C(c2ccccc2)N2CCOCC2)=C(O)C(c2ccccc2)N1c1ccccc1 (configuration not stated)	> 10 µM	> 10 µM	> 10 µM	> 10 µM	> 10 µM	> 10 µM	> 10 µM	> 10 µM	> 10 µM	> 10 µM	> 10 µM	> 10 µM	> 10 µM	> 10 µM	> 10 µM	> 10 µM	> 10 µM	> 10 µM	> 10 µM	
CCOC(=O)N(c1ccccc1)c1cc(=O)n2ccccc2n1	> 100 µM	> 100 µM	> 100 µM	> 100 µM	> 100 µM	> 100 µM	> 100 µM	> 100 µM	> 100 µM	> 100 µM	> 100 µM	> 100 µM	> 100 µM	> 100 µM	> 100 µM	> 100 µM	> 100 µM	> 100 µM	> 100 µM	
CN(Cc1cnc2nc(N)nc(N)c2n1)c1ccc(C(=O)NCS(=O)(=O)O)cc1	> 100 µM		> 100 µM	> 100 µM	> 100 µM	> 100 µM	> 100 µM	> 100 µM	> 100 µM	> 100 µM	> 100 µM	> 100 µM	> 100 µM	> 100 µM	> 100 µM	> 100 µM	> 100 µM	> 100 µM	> 100 µM	> 100 µM
COC(=O)Nc1nc2ccc(S(=O)(=O)n3nnc4ccccc43)cc2[nH]1	> 100 µM	> 100 µM	51.2 µM	> 100 µM	> 100 µM	> 100 µM	> 100 µM	> 100 µM		> 100 µM	> 100 µM	> 100 µM	> 100 µM	21.4 µM	> 100 µM		> 100 µM	43.9 µM	> 100 µM	35.8 µM
COc1ccc(N=C2C(=Nc3ccc(OC)cc3)N(S(=O)(=O)c3ccccc3)C(=S)N2c2ccccc2)cc1	> 100 µM		> 100 µM	> 100 µM	> 100 µM	> 100 µM	> 100 µM	> 100 µM	> 100 µM	> 100 µM	> 100 µM	> 100 µM	> 100 µM	> 100 µM	> 100 µM	> 100 µM	> 100 µM	> 100 µM	> 100 µM	> 100 µM
O=C(NNc1ccnc2cc(Cl)ccc12)/C(=C\c1ccccc1Cl)NC(=O)c1ccccc1	> 100 µM	67.8 µM	48.6 µM	> 100 µM	46.1 µM	> 100 µM	> 100 µM		67.6 µM	> 100 µM	> 100 µM	> 100 µM	81.2 µM	> 100 µM	> 100 µM	> 100 µM	34 µM	> 100 µM	> 100 µM	> 100 µM
COC(=O)[C@H]1C[C@H]1NC(=O)C(CC(=O)OCc1ccccc1)NC(=O)OCc1ccccc1 (some centres not stated)	> 100 µM	39.6 µM		> 100 µM	> 100 µM	> 100 µM	69.8 µM	> 100 µM	> 100 µM	> 100 µM	> 100 µM	> 100 µM	55.9 µM	> 100 µM	98.4 µM	> 100 µM	> 100 µM	> 100 µM		
